Here are results for one compound from patent US10668080B2, “Phosphaplatin compounds as therapeutic agents for treatment of bone or blood cancers” (Phosplatin Therapeutics LLC, priority 2017, dated 2020).

In data set [1] the test system is de novo Vk*MYC mice. The data set can be described thus: Multiple myeloma mouse model, de novo Vk*MYC mice, M-spike levels. It is filed as in vivo. How it is done: (§1) The trans-pyrodach-2 compound is tested on the multiple myeloma mouse model, in particular Vk*MYC mice, which has been reported to be a faithful preclinical model that predicts the clinical activity of drugs in untreated and relapsed MM (Chesi, M., et al., Cancer Cell, 2008, 23, 167-180; Chesi, M., et al., Blood, 2012, 120(2): 376-385). Additionally, the trans-pyrodach-2 compound was tested in mice engrafted with the more aggressive bortezomib resistant Vk12598, and in the multidrug resistant Vk12653 lines, both of which were generated from Vk*MYC mice.
De novo Vk*MYC mice were aged to one year or longer, and M-spike levels were monitored. After the concentrations of the predominant M-spike reached levels of between about 10 and 70 g/L (estimated by densitometry, comparing M-spike to albumin), mice were candidates for starting drug treatment. Mice brought onto the study were dosed either twice weekly (n=2) or thrice (n=1) weekly at a concentration of 100 or 67 mg/kg (R,R)-pyrodach-2, respectively, administered via IP injection after preparation in a phosphate buffer solution. M-spike levels were measured weekly, and post-treatment measurements were compared and normalized to the pre-treatment baseline measurement. Dosing was halted after two weeks of treatment.

In data set [2] the test system is metastatic castration resistant prostate cancer (mCRPC). The data set can be described thus: Phase I study, decline in serum alkaline phosphatase in patient with mCRPC. It is filed as in vivo, human. The note with it: 250 mg/m^2 on days 1, 8, 15 of 28 day cycle. How it is done: In an ongoing phase I solid tumor dose escalation study, R,R-pyrodach-2 (PT-112) was given to a patient with mCRPC at a dose of 250 mg/m^2, dosed on days 1, 8, and 15 of a 28 day cycle. The patient enrolled in the study with elevated serum alkaline phosphatase levels, a sign of metastatic bone disease.
Upon treatment start, the patient experienced a rapid decline in serum alkaline phosphatase levels, a sign of anticancer drug activity at cancerous bone lesions. These measurements were fractionated to validate the proportion of the result emanating from bone (vs. liver). The bone proportion represented the vast majority of the result, validating the relationship to the metastatic bone disease in this patient.

The nature of data set [3]: LA-ICP-MS imaging, distribution and quantification of platinum in mouse whole-body sections. It is filed as in vivo, CD-1 mice. The note with it: (R,R)-pyrodach-2 or derived Pt; treated mice. As to the method: Five CD-1 mice were dosed with (R,R)-pyrodach-2, intravenous (IV), at a concentration of 90 mg/kg, and one additional mouse was dosed with vehicle (phosphate buffer). After dosing, the (R,R)-pyrodach-2 treated mice were euthanized at different time points (45 min, 3 hr, 12 hr, 24 hr, and 72 hr), and the control mouse was euthanized at 45 minutes post dosing. Subsequently, carcasses were snap frozen at −70° C. Slides of full body sagittal plane cross sections were prepared for the control, 45 min, and 24 hr mice. Laser Ablation Inductively Coupled Plasma Mass Spectrometry (LA-ICP-MS) was then used to scan the slides for the concentration of Pt (an atomic component of (R,R)-pyrodach-2) across the entire full body cross sections. Additional slides were prepared from adjacent positions and hematoxylin & eosin (H&E) stained to map the Pt signal to different organs and tissues.
To detect the Platinum element (Pt) by LA-ICP-MS imaging into mouse whole-body sections at 150 μm spatial resolution covering the entire sections in the different section planes for the animals: Treated 45 min, Treated 24 h and Control 45 min (3 sectioning levels per animal).
The mice were sectioned at 20 μm thickness in 3 different section planes with a cryostat and mounted onto ITO glass slides. […]

Data set [4] concerns Vk12598-engrafted mice. As to the kind of experiment: Mice engrafted with bortezomib resistant Vk12598 line, survival. Format: in vivo. The note with it: 62.5 mg/kg IP twice a week for two weeks; for survival: versus vehicle control (all died by 21 days). As to the method: as §1
(§2) Additionally, mice were engrafted with the Vk12598 transplantable line and received vehicle (n=11) or (R,R)-pyrodach-2 at a concentration of 62.5 mg/kg (n=12). Mice engrafted with the Vk12653 transplantable line were likewise treated with vehicle (n=10) or (R,R)-pyrodach-2 at 62.5 mg/kg (n=10). Both Vk12598 and Vk12653 engrafted mice were treated twice a week for two weeks via IP injection and monitored via survival and M-spike levels, respectively.

The nature of data set [5]: Phase I solid tumor dose escalation study, safety. Format: in vivo, human. The note with it: phase I trial; MTD yet to be determined. As to the method:
In an ongoing phase I solid tumor dose escalation study, R,R-pyrodach-2 (PT-112) was given to a patient with mBCC at a dose of 150 mg/m^2, dosed on days 1, 8, and 15 of a 28 day cycle.

In data set [6] the test system is cancerous cell lines, including leukemia and multiple myeloma cell lines resistant to lenalidomide, dexamethasone, and/or bortezomib. As to the kind of experiment: In vitro experiments on several cancerous cell lines. Format: cell-based. The note with it: several different cancerous cell lines. The text has this: Thus, these bone tissues are exposed to (R,R)-pyrodach-2 (or derived Pt) at concentrations much higher than what is normally needed to induce cancer cell death.

The test system of data set [7] is Vk12653-engrafted mice. The data set can be described thus: Mice engrafted with multidrug resistant Vk12653 line, M-spike levels. Format: in vivo. The note with it: 62.5 mg/kg IP twice a week for two weeks. As to the method: as §1, §2

On to `O=P1(O)OP(=O)(O)[O][Pt]2([NH][C@@H]3CCCC[C@H]3[NH]2)[O]1` (stereo partly drawn) [(R,R)-pyrodach-2, trans-(R,R)-1,2-cyclohexanediamine-(dihydrogenpyrophosphato) platinum(II)], for which, in data set [1] (M-spike response in Vk*MYC model), the “results compared with approved MM SoC agents” value is on record as “comparable or superior”. Besides, the tolerability result in data set [1] (given twice or thrice weekly, Vk*MYC mouse model) was “well tolerated”. Further, the “serum alkaline phosphatase levels” value in data set [2] was “rapid decline”. Moreover, the “distribution to bone compartments” value in data set [3] is “clearly concentrates in bone compartments at very high concentrations over a long period of time”. Also, the complete responses result in data set [4] is given as “durable, complete response lasting over six months”. Also, the survival result in data set [4] is “significant increases in survival”; in data set [4] (listed as (R,R)-Pyrodach-2), “increased survival”. For the same compound, the “highest dose deemed to be safe” value in data set [5] is 360 mg/m^2. The “concentrations sufficient to kill cancer cells” value in data set [6] is “low micromolar”. Moreover, the figures for the “M-spike levels in comparison to vehicle control” value in data set [7] and in data set [7] (listed as (R,R)-Pyrodach-2) were “statistically significant reduction” and “repression of M-spike level elevations”, respectively.
